Patent US20250026778A1 (TIUMBIO CO., LTD., priority 2021, published 2025)

Target: T1, his-galectin-3 (Homo sapiens, UniProt P17931)
T1 construct: purchased Abcam
Experiment: TR-FRET assay (in vitro galectin-3 binding inhibitory activity test)
Details: Table 2; compound at 20 μM; 60 nM his-galectin-3, 15 nM biotin-ASF; read-out: % Inhibitory activity (at 20 μM)
Summary of the method: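 Compound is premixed with his-galectin-3 (60 nM final), then biotin-ASF (15 nM), Tb anti-His antibody (2 nM) and streptavidin-d2 (20 nM) are added. After at least 3.5 hours at RT in HEPES/NaCl buffer with Tween 20 and BSA, TR-FRET is read at 615/665 nm. DMSO serves as the uninhibited control, ASF omission as background.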

T1 sequence (P17931 whole entry): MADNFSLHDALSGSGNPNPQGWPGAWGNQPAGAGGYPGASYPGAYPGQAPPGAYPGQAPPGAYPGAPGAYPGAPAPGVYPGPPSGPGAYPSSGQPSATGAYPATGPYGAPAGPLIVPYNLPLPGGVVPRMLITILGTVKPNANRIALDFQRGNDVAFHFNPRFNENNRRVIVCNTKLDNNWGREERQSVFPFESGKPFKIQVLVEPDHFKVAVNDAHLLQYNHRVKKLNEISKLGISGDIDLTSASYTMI

SMILES	inhibition at 20 µM
O=C(N[C@@H]1CCO[C@]12O[C@H](CO)[C@H](O)[C@H](n1cc(-c3cc(F)c(F)c(F)c3)nn1)[C@H]2O)C1CCCc2ccccc21 (stereo partly drawn) [Compound A160, N-((4R,5S,7R,8R,9S,10R)-8,10-dihydroxy-7-(hydroxymethyl)-9-(4-(3,4,5-trifluorophenyl)-1H-1,2,3-triazol-1-yl)-1,6-dioxaspiro[4.5]decan-4-yl)-1,2,3,4-tetrahydronaphthalene-1-carboxamide]	50 to 75%
O=C(N[C@@H]1CCO[C@]12O[C@H](CO)[C@H](O)[C@H](n1cc(-c3cc(F)c(F)c(F)c3)nn1)[C@H]2O)c1coc2ccccc12 [Compound A161, N-((4R,5S,7R,8R,9S,10R)-8,10-dihydroxy-7-(hydroxymethyl)-9-(4-(3,4,5-trifluorophenyl)-1H-1,2,3-triazol-1-yl)-1,6-dioxaspiro[4.5]decan-4-yl)benzofuran-3-carboxamide]	> 75%
O=C(N[C@@H]1CCO[C@]12O[C@H](CO)[C@H](O)[C@H](n1cc(-c3cc(F)c(F)c(F)c3)nn1)[C@H]2O)c1cccc2c1CCC2 [Compound A162, N-((4R,5S,7R,8R,9S,10R)-8,10-dihydroxy-7-(hydroxymethyl)-9-(4-(3,4,5-trifluorophenyl)-1H-1,2,3-triazol-1-yl)-1,6-dioxaspiro[4.5]decan-4-yl)-2,3-dihydro-1H-indene-4-carboxamide]	50 to 75%
O=C(N[C@@H]1CCO[C@]12O[C@H](CO)[C@H](O)[C@H](n1cc(-c3cc(F)c(F)c(F)c3)nn1)[C@H]2O)C1CCc2ccccc21 (stereo partly drawn) [Compound A163, N-((4R,5S,7R,8R,9S,10R)-8,10-dihydroxy-7-(hydroxymethyl)-9-(4-(3,4,5-trifluorophenyl)-1H-1,2,3-triazol-1-yl)-1,6-dioxaspiro[4.5]decan-4-yl)-2,3-dihydro-1H-indene-1-carboxamide]	50 to 75%
O=C(N[C@@H]1CCO[C@]12O[C@H](CO)[C@H](O)[C@H](n1cc(-c3cc(F)c(F)c(F)c3)nn1)[C@H]2O)c1cccc(-c2ccccc2F)c1 [Compound A164, N-((4R,5S,7R,8R,9S,10R)-8,10-dihydroxy-7-(hydroxymethyl)-9-(4-(3,4,5-trifluorophenyl)-1H-1,2,3-triazol-1-yl)-1,6-dioxaspiro[4.5]decan-4-yl)-2′-fluoro-[1,1′-biphenyl]-3-carboxamide]	> 75%
O=C(N[C@@H]1CCO[C@]12O[C@H](CO)[C@H](O)[C@H](n1cc(-c3cc(F)c(F)c(F)c3)nn1)[C@H]2O)c1cccc(-c2cccc(F)c2)c1 [Compound A165, N-((4R,5S,7R,8R,9S,10R)-8,10-dihydroxy-7-(hydroxymethyl)-9-(4-(3,4,5-trifluorophenyl)-1H-1,2,3-triazol-1-yl)-1,6-dioxaspiro[4.5]decan-4-yl)-3′-fluoro-[1,1′-biphenyl]-3-carboxamide]	50 to 75%
O=C(N[C@@H]1CCO[C@]12O[C@H](CO)[C@H](O)[C@H](n1cc(-c3cc(F)c(F)c(F)c3)nn1)[C@H]2O)c1cccc(-c2cccc(Cl)c2)c1 [Compound A166, 3′-chloro-N-((4R,5S,7R,8R,9S,10R)-8,10-dihydroxy-7-(hydroxymethyl)-9-(4-(3,4,5-trifluorophenyl)-1H-1,2,3-triazol-1-yl)-1,6-dioxaspiro[4.5]decan-4-yl)-[1.1′-biphenyl]-3-carboxamide]	50 to 75%
O=C(N[C@@H]1CCO[C@]12O[C@H](CO)[C@H](O)[C@H](n1cc(-c3cc(F)c(F)c(F)c3)nn1)[C@H]2O)c1cccc2c(Cl)cccc12 [Compound A169, 5-chloro-N-((4R,5S,7R,8R,9S,10R)-8,10-dihydroxy-7-(hydroxymethyl)-9-(4-(3,4,5-trifluorophenyl)-1H-1,2,3-triazol-1-yl)-1,6-dioxaspiro[4.5]decan-4-yl)-1-naphthamide]	> 75%
O=C(N[C@@H]1CCO[C@]12O[C@H](CO)[C@H](O)[C@H](n1cc(-c3cc(F)c(F)c(F)c3)nn1)[C@H]2O)c1ccc(F)c2ccccc12 [Compound A170, N-((4R,5S,7R,8R,9S,10R)-8,10-dihydroxy-7-(hydroxymethyl)-9-(4-(3,4,5-trifluorophenyl)-1H-1,2,3-triazol-1-yl)-1,6-dioxaspiro[4.5]decan-4-yl)-4-difluoro-1-naphthamide]	> 75%

Results, then the compound that gave them:

inhibition at 20 µM	SMILES
> 75%	O=C(N[C@@H]1CCO[C@]12O[C@H](CO)[C@H](O)[C@H](n1cc(-c3cc(F)c(F)c(F)c3)nn1)[C@H]2O)c1ccc(Cl)c2ccccc12 [Compound A172, 4-chloro-N-((4R,5S,7R,8R,9S,10R)-8,10-dihydroxy-7-(hydroxymethyl)-9-(4-(3,4,5-trifluorophenyl)-1H-1,2,3-triazol-1-yl)-1,6-dioxaspiro[4.5]decan-4-yl)-1-naphthamide]
25 to 50%	O=C(N[C@@H]1CCO[C@]12O[C@H](CO)[C@H](O)[C@H](n1cc(-c3cc(F)c(F)c(F)c3)nn1)[C@H]2O)c1ccc2cc(Cl)ccc2c1 [Compound A173, 6-chloro-N-((4R,5S,7R,8R,9S,10R)-8,10-dihydroxy-7-(hydroxymethyl)-9-(4-(3,4,5-trifluorophenyl)-1H-1,2,3-triazol-1-yl)-1,6-dioxaspiro[4.5]decan-4-yl)-2-naphthamide]
> 75%	O=C(N[C@@H]1CCO[C@]12O[C@H](CO)[C@H](O)[C@H](n1cc(-c3cc(F)c(F)c(F)c3)nn1)[C@H]2O)c1ccc(Br)c2ccccc12 [Compound A176, 4-bromo-N-((4R,5S,7R,8R,9S,10R)-8,10-dihydroxy-7-(hydroxymethyl)-9-(4-(3,4,5-trifluorophenyl)-1H-1,2,3-triazol-1-yl)-1,6-dioxaspiro[4.5]decan-4-yl)-1-naphthamide]
> 75%	O=C(N[C@@H]1CCO[C@]12O[C@H](CO)[C@H](O)[C@H](n1cc(-c3cc(F)c(F)c(F)c3)nn1)[C@H]2O)c1csc2ccc(Cl)cc12 [Compound A177, 5-chloro-N-((4R,5S,7R,8R,9S,10R)-8,10-dihydroxy-7-(hydroxymethyl)-9-(4-(3,4,5-trifluorophenyl)-1H-1,2,3-triazol-1-yl)-1,6-dioxaspiro[4.5]decan-4-yl)benzo[b]thiophene-3-carboxamide]
> 75%	O=C(N[C@@H]1CCO[C@]12O[C@H](CO)[C@H](O)[C@H](n1cc(-c3cc(F)c(F)c(F)c3)nn1)[C@H]2O)c1cc(Br)cc2ccccc12 [Compound A178, 3-bromo-N-((4R,5S,7R,8R,9S,10R)-8,10-dihydroxy-7-(hydroxymethyl)-9-(4-(3,4,5-trifluorophenyl)-1H-1,2,3-triazol-1-yl)-1,6-dioxaspiro[4.5]decan-4-yl)-1-naphthamide]

Same assay, conditions: Table 3, found values; compound at 20 μM; 60 nM his-galectin-3, 15 nM biotin-ASF; read-out: % Inhibitory activity (at 20 μM)

inhibition at 20 µM	SMILES
69.9%	O=C(N[C@@H]1CCO[C@]12O[C@H](CO)[C@H](O)[C@H](n1cc(-c3cc(F)c(F)c(F)c3)nn1)[C@H]2O)c1cccc2c1CCC2 [Compound A162, N-((4R,5S,7R,8R,9S,10R)-8,10-dihydroxy-7-(hydroxymethyl)-9-(4-(3,4,5-trifluorophenyl)-1H-1,2,3-triazol-1-yl)-1,6-dioxaspiro[4.5]decan-4-yl)-2,3-dihydro-1H-indene-4-carboxamide]
85.3%	O=C(N[C@@H]1CCO[C@]12O[C@H](CO)[C@H](O)[C@H](n1cc(-c3cc(F)c(F)c(F)c3)nn1)[C@H]2O)c1ccc(F)c2ccccc12 [Compound A170, N-((4R,5S,7R,8R,9S,10R)-8,10-dihydroxy-7-(hydroxymethyl)-9-(4-(3,4,5-trifluorophenyl)-1H-1,2,3-triazol-1-yl)-1,6-dioxaspiro[4.5]decan-4-yl)-4-difluoro-1-naphthamide]

Same assay, conditions: read-out: % Inhibitory activity (at 20 μM), Table 2; compound at 20 μM; 60 nM his-galectin-3, 15 nM biotin-ASF

SMILES	inhibition at 20 µM
O=C(N[C@@H]1CCO[C@]12O[C@H](CO)[C@H](O)[C@H](n1cc(-c3cc(F)c(F)c(F)c3)nn1)[C@H]2O)c1ccccc1Oc1ccccc1 [Compound A171, N-((4R,5S,7R,8R,9S,10R)-8,10-dihydroxy-7-(hydroxymethyl)-9-(4-(3,4,5-trifluorophenyl)-1H-1,2,3-triazol-1-yl)-1,6-dioxaspiro[4.5]decan-4-yl)-2-phenoxybenzamide]	25 to 50%
